Entries after “also recorded” stand apart in the source; their conditions may differ. Blank lines part the entries; values can stand above or below the compound they belong to.
Experiments:
[1] = molecular target: T1, CXCR4-CHRM1 heteromer (Homo sapiens, UniProt P11229); assay: Internalization inhibition assay, CXCR4-GFP U-2 OS cells transduced with CHRM1; type: cell-based; conditions: 20 minutes
T1 construct: expressed in transfected cells; host or cells: U-2 OS cells stably expressing CXCR4-GFP, transduced with CHRM1 adenovirus
T1 sequence (P11229 whole entry): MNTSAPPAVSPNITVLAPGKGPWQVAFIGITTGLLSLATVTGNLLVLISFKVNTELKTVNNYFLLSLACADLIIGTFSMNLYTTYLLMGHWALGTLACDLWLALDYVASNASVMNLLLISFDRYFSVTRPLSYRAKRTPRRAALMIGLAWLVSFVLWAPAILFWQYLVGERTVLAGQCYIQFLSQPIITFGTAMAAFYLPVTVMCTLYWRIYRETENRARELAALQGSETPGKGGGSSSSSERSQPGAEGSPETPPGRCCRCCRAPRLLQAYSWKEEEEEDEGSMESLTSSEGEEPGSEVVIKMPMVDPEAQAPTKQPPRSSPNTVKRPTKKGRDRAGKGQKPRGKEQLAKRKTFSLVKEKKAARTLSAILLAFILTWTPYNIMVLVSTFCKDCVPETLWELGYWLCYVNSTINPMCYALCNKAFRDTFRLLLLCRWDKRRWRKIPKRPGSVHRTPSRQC
T1 sequence (P61073 whole entry partner): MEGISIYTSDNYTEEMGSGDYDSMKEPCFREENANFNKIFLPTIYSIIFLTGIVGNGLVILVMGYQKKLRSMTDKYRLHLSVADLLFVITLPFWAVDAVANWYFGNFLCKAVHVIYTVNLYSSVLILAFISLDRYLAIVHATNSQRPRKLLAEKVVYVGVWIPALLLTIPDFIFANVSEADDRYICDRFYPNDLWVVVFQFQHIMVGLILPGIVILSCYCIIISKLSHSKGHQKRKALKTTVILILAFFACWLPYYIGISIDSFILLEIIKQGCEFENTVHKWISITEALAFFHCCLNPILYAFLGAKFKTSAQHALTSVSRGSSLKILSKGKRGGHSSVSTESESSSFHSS
Procedure: Cells co-expressing CXCR4-GFP and GPCRx are treated with CXCL12 (SDF-1) and/or GPCRx specific antagonist.
(FIG. 10A) CXCR4-ADRB2; (FIG. 10B) CXCR4-CHRM1; and (FIG. 10C) CXCR4-HRH1. (FIG. 10A) CXCR4-GFP expressing U-2 OS cells were transduced with adenovirus encoding ADRB2. […] (FIG. 10B) CXCR4-GFP expressing U-2 OS cells were transduced with adenovirus encoding CHRM1. […] (FIG. 10C) CXCR4-GFP expressing U-2 OS cells were transduced with adenovirus encoding HRH1.
U-2 OS cells stably expressing CXCR4-GFP were transduced with Adenoviruses encoding GPCRx (ADRB2, CHRM1, HRH1). After 2 days, images were obtained before and 20 minutes after stimulating cells with CXCR4-specific agonist, CXCL12 (SDF-1) (20 nM), and/or GPCRx-specific antagonist (10 μM). Internalization of CXCR4-GFP was observed as GFP granules using IN Cell Analyzer 2500. Loss of GFP expression on the cell surface or appearance of GFP granules inside the cells were considered as CXCR4-GFP co-internalization.
CXCR4-GFP expressed U-2 OS cells were seeded at a density of 5000 cells per well in a black 96-well clear-bottom plate in 100 μl of McCoy's 5A medium supplemented with 10% FBS. On the following day, the cells were transduced with adenoviruses encoding GPCRx (30 MOI). Two days post-transduction, cells were stimulated with SDF-1 and/or GPCRx agonists for 20 min and fixed with 4% paraformaldehyde.

[2] = test system: patient derived cells (PDCs); assay: Proliferation assay (ATPlite), survival of glioblastoma patient derived cells; type: cell-based; conditions: Homo sapiens, 168 h, 7 days, read-out: IC50, survival of PDC
Procedure: We prepared single cell suspensions of resected and dissociated glioblastoma tissues from patients. (provided by Samsung Seoul hospital in Seoul, Korea) These cells were cultured under conditions optimal for propagation and non-differentiation of normal neuronal stem cell. Media were composed serum free Neurobasal media supplemented with basic FGF and EGF.
After the 7-day incubation, 15 μl ATPlite was added into the each well and the plate were shaken for 5 minutes in an orbital shaker at 700 rpm. The luminescent signal was detected within 30 minutes at PerkinElmer TopCount detection instrument. The cell viability was calculated using the equation: Cell viability(%)=(OD of antagonist treatment/OD of DMSO only treatment)×100%.
PDCs were seeded in 384-well plate at 500 ea/well in 40 ul culture media. After overnight growth, the cells were cultured for 7 days in the presence of several dose of GPCRx antagonist or DMSO alone. […] The luminescent signal was detected within 30 minutes at PerkinElmer TopCount detection instrument. The cell viability was calculated using the equation: Cell viability (%)=(OD of antagonist treatment/OD of DMSO only treatment)×100%.

[3] = molecular target: CXCR4-CHRM1 heteromer (Homo sapiens, UniProt P11229+P61073); conditions: antagonist 1 μM; FIG. 8B
CXCR4-CHRM1 heteromer (Homo sapiens, UniProt P11229+P61073), sequence (P61073 whole entry): as the sequence (P61073 whole entry partner) above
CXCR4-CHRM1 heteromer (Homo sapiens, UniProt P11229+P61073), sequence (P11229 whole entry): as the sequence (P11229 whole entry) above
Procedure: MDA-MB-231 cells were co-transduced with adenoviruses encoding CXCR4 and GPCRx. […] In F &G, cells were transduced with adenoviruses encoding CXCR4, and endogenous HRH1 responses were examined with 50 nM of histamine. Cells were incubated with Cal-520 AM for 2 hr, GPCR antagonists or vehicle for 30 min, and stimulated with indicated amounts of CXCL12, GPCRx agonist, or CXCL12 and GPCRx agonist.
The next day, cells were co-transduced with 10 MOI of CXCR4 and 30 MOI of HA-VC, 10 MOI of HA-VC and 30 MOI of GPCRx, or 10 MOI of CXCR4 and 30 MOI of GPCRx. Adenoviruses encoding HA-VC were used to adjust the total amount of adenoviruses transduced. After 2 days, cells were washed twice with assay buffer (Hank's balanced salt solution without phenol red, supplemented with 0.1% BSA and 20 mM HEPES, pH7.4), and stained with 5 μg/ml of Cal-520 AM (AAT Bioquest, Sunnyvale, CA, USA) diluted in assay buffer for 2 hr. Cells were washed with assay buffer three times, and incubated at 37° C. for another 30 min. Plate was loaded on a FlexStation 3 Multi-Mode Microplate Reader (Molecular Devices, Sunnyvale, CA, USA) and GPCRx agonists were added. […] Antagonists or vehicles were added 30 min before agonist treatment.

[4] = molecular target: T2, CXCR4-EDNRB heteromer (Homo sapiens, UniProt P24530+P61073); assay: Calcium mobilization assay, enhanced signaling of CXCR4-EDNRB heteromer in MDA-MB-231 cells; type: cell-based; conditions: antagonist(s) 1 μM; FIG. 8E
T2 construct: expressed in transfected cells
T2 sequence (P61073 whole entry): as the sequence (P61073 whole entry partner) above
T2 sequence (P24530 27-442): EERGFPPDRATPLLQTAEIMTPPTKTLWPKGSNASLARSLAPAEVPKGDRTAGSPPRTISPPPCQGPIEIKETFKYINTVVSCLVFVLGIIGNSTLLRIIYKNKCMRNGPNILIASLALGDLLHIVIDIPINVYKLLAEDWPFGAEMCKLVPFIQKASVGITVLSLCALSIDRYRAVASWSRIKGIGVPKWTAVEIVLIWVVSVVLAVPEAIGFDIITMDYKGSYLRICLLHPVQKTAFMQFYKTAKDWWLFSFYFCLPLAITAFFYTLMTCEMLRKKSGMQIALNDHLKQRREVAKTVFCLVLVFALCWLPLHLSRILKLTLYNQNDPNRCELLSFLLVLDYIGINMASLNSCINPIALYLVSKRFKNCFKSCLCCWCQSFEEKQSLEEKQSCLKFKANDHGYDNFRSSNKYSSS
Procedure: (§1) The efficiency of CXCR4 inhibitors in suppressing the enhanced signaling of CXCR4-EDNRB heteromer was measured in the absence or presence of the representative EDNRB inhibitors ambrisentan or bosentan (Table 12). […] Inhibitors were treated 30 min before agonist stimulation. Ca2+ mobilization was measured as described in FIG. 5, and IC50 values were calculated using GraphPad Prism software.

[5] = molecular target: T3, CXCR4-HRH1 heteromer (Homo sapiens, UniProt P35367+P61073); assay: Calcium mobilization assay, enhanced signaling of CXCR4-HRH1 heteromer in MDA-MB-231 cells; type: cell-based; conditions: antagonist 1 μM; cells transduced with CXCR4, endogenous HRH1, 50 nM histamine; FIGS. 8F, 8G
T3 construct: expressed in transfected cells
T3 sequence (P61073 whole entry): as the sequence (P61073 whole entry partner) above
T3 sequence (P35367 whole entry): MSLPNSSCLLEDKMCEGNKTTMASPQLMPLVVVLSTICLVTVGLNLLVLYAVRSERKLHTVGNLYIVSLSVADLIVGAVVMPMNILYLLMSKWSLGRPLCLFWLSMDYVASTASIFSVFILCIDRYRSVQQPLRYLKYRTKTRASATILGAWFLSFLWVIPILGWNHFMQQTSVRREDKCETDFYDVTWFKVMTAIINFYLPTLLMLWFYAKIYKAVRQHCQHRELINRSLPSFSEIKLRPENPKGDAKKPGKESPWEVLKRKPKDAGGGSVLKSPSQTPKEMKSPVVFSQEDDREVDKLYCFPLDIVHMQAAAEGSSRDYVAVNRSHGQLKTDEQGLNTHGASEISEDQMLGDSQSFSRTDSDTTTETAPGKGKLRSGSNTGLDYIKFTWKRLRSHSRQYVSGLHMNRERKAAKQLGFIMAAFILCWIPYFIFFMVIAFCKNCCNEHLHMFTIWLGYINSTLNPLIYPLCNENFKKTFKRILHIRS
Procedure: as §1, with “CXCR4-HRH1” for “CXCR4-EDNRB”, “HRH1” for “EDNRB”, “Hydroxyzine, Prometazine,” for “ambrisentan”, “Cyproheptadine” for “bosentan”, “8).” for “12).”

[6] = molecular target: T4, CXCR4-NTSR1 heteromer (Homo sapiens, UniProt P30989+P61073); assay: Calcium mobilization assay, enhanced signaling in MDA-MB-231 cells co-expressing CXCR4 and NTSR1; type: cell-based; conditions: antagonist 1 μM; FIG. 8K
T4 construct: expressed in transfected cells
T4 sequence (P61073 whole entry): as the sequence (P61073 whole entry partner) above
T4 sequence (P30989 whole entry): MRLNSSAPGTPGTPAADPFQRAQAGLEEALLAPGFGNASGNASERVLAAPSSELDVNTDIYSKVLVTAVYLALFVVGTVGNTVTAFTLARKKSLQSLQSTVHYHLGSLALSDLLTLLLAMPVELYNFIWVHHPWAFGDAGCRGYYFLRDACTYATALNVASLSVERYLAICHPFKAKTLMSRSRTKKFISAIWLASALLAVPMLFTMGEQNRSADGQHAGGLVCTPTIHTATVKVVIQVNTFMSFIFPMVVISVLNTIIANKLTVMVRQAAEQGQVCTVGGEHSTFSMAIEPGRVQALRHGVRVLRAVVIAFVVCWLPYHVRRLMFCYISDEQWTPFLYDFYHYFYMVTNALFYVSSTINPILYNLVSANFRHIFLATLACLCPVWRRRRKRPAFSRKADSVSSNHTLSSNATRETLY

[7] = test system: MDA-MB-231 cells; assay: Chemotactic migration assay; type: cell-based, human; conditions: cells transduced with 1 MOI CXCR4 lentivirus; CXCL12 30 nM, histamine 50 nM; pyrilamine 1 μM
Procedure: Chemotaxis was quantified by counting the migrated cells on the lower surface of the membrane of 10 fields per chamber. (FIG. 19A) A representative picture of each group. […] The data represent mean±SEM (n=3 or 5). Statistically significant differences were determined by Student's t test. *P<0.05.
Since MDA-MB-231 cells express about twice more HRH1 mRNA compared with CXCR4 mRNA when measured by RT-qPCR, the MDA-MB-231 cells were transduced with small amount of lentivirus encoding CXCR4 (1 MOI) and chemotactic migration of the cells toward CXCL12 and […] was measured (FIGS. 19A and 19B).
Transwell plates (8 μm pore size polycarbonate membrane, 6.5-mm diameter) were coated with 50 μg/mL collagen for 2 h at 37° C. (Corning Inc.). MDA-MB-231 cells were serum-starved 24 h and then plated in serum-free medium containing 0.5% BSA in the top chamber (20,000 cells/100 μL). Antagonists or inverse agonists were added to the cells 30 min before plating the cells in the transwell plates. Attractants were added in the bottom chamber. Antagonists or inverse agonists were also included in the bottom chamber. After 3 h at 37° C., cells on the top transwell membrane were removed using a cotton swab, fixed, and stained with 0.1% Crystal violet. Chemotaxis was quantified by counting the migrated cells on the lower surface of the membrane of 10 fields per chamber at 10× objective.

[8] = molecular target: T5, CXCR4 (Homo sapiens, UniProt P61073); assay: Calcium mobilization assay in MDA-MB-231 cells expressing CXCR4 alone; type: cell-based; conditions: approximate; concentration used to stimulate the cells; read-out: EC50 concentration against CXCR4
T5 construct: expressed in transfected cells
T5 sequence (P61073 whole entry): as the sequence (P61073 whole entry partner) above
Procedure: The cells were then stained with Cal-6 for 2 hours and stimulated with CXCR4 agonsit (CXCL12; 20 nM) and ADRB2 agonist (Salmeterol; 1 μM).

[9] = test system: A549-CXCR4-ADRB2 cell line stably overexpressing CXCR4-ADRB2 heteromer; assay: Anti-tumor effect in nude mice transplanted with A549-CXCR4-ADRB2 cells; type: in vivo, mouse; conditions: LY2510924 3 mg/kg subcutaneously, Carvedilol 30 mg/kg orally, once a day; vehicle 554.2±152.7
Procedure: To investigate the anti-tumor effect of CXCR4-ADRB2 heteromer inhibitors on tumor growth, the A549-CXCR4-ADRB2, stably overexpressing CXCR4-ADRB2 heteromer (1×10^7 cell/head) was injected subcutaneously in nude mice. When tumor sizes were reached an average of 50-100 mm^3, CXCR4 inhibitor, ADRB2 inhibitor alone or combination of CXCR4 and ADRB2 inhibitors were treated.
The tumor growth was monitored every third or fourth day by measuring the length (L) and width (W) of the tumor and calculating tumor volume based on the following formula: Volume=0.5 LW^2.
Five week-old, female Balb/c-nu/nu mice were obtained from Envigo (France) and maintained in specific pathogen-free animal facility. All protocols for animal use and euthanasia were approved by the Qubest Bio (South Korea) Animal Experimental Ethics Committee based on the Animal Protection Act. The 1×10^7 cells of A549, A549-CXCR4 or A549-CXCR4-ADRB2 were suspended in 100 μL of phosphate-buffered saline (PBS) and were implanted by subcutaneously in axillary region between the clavicular and chest wall on the right side of the mouse. The tumor growth was monitored every third or fourth day by measuring the length (L) and width (W) of the tumor with an electronic caliper and calculating tumor volume in the basis of the following formula: Volume=0.5 LW^2.
For the antitumor efficacy test using CXCR4 and ADRB2 inhibitor, A549-CXCR4-ADRB2 cell line overexpressing CXCR4 and ADRB2 in A549, lung cancer cell line was subcutaneously administered (1×10^7 cell in 100 μL PBS/head) to BALB/c-nu. […] The tumor growth was monitored every third or fourth day by measuring the length (L) and width (W) of the tumor: Volume=0.5 LW^2.

Compound: OC(c1ccccc1)(c1ccccc1)C12CC[N+](CCOCc3ccccc3)(CC1)CC2 [Umeclidinium]
inhibition of CXCL12 induced CXCR4-CHRM1 internalization ([1]; CXCL12 20 nM with antagonist 10 μM): inhibited CXCL12 induced CXCR4-CHRM1 internalization
internalization of CXCR4-CHRM1 by antagonist alone ([1]; antagonist 10 μM): did not induce internalization; also recorded: had no effect on the internalization of the heteromer
IC50 [2]: 4.03 µM

Compound: O=C(CCNS(=O)(=O)c1cccc2nsnc12)N1CCN(c2ccncc2)CC1 [VU0255035]
suppression of enhanced calcium signaling upon co-stimulation with CXCL12 and CHRM1 agonist [3]: suppressed the enhanced calcium signaling significantly

Compound: COc1ccccc1Oc1c(NS(=O)(=O)c2ccc(C(C)(C)C)cc2)nc(-c2ncccn2)nc1OCCO [bosentan]
suppression of enhanced calcium response upon co-stimulation with CXCL12 and EDNRB agonist [4]: failed to inhibit enhanced calcium response significantly

Compound: O=C(O)COCCN1CCN(C(c2ccccc2)c2ccc(Cl)cc2)CC1 (stereo not shown) [cetirizine]
suppression of enhanced calcium signaling upon co-stimulation with CXCL12 and histamine [5]: suppressed the enhanced calcium signaling significantly

Compound: COc1cccc(OC)c1-c1cc(C(=O)NC2(C(=O)O)C3CC4CC(C3)CC2C4)nn1-c1ccnc2cc(Cl)ccc12 (stereo not shown) [meclinertant]
suppression of enhanced calcium signaling upon co-stimulation with CXCL12 and NTSR1 agonist [6]: suppressed the enhanced calcium signaling significantly

Compound: COc1ccc(CN(CCN(C)C)c2ccccn2)cc1 [pyrilamine]
effect on enhanced migration upon co-stimulation with CXCL12 and histamine [7]: completely abolished the enhanced response; also recorded: failed to enhance the cell migration elicited by CXCL12

EC50 [8]: ~15 nM
Compound: CXCL12: C-X-C Motif Chemokine ligand 12, CXCR4 agonist

Compound: LY2510924
average tumor volume at day 21 post-treatment [9]: 488.9±135.2 mm^3

From patent US11857600B2, “GPCR heteromer inhibitors and uses thereof” (GPCR THERAPEUTICS, INC., priority 2017, dated 2024)
